In patent US10414811B2, “Protease-resistant lipidated GLP-1 analogs” (MEDIMMUNE LIMITED, priority 2015, dated 2019):
pEC50: −log10 of the molar value. Where two headings read alike, the source gives them in different places. Numbered stars: 1 amine (or outer) side, 2 acyl side, 3 side chain; on linkers, the order of the positions; unused ones are H or OH. Square brackets hold non-standard residues; d marks the D form. Side chains are listed from the residue outwards. Peptide text beside a SMILES is read from it. * marks the point of attachment. C18 diacid = O=C(O)CCCCCCCCCCCCCCCCC(=O)*; γGlu = O=C(O)[C@H](CCC(=O)[*:2])N[*:1]; Stearoyl = CCCCCCCCCCCCCCCCCC(=O)*; αMeF = C[C@](N)(Cc1ccccc1)C(=O)O; Myristoyl = CCCCCCCCCCCCCC(=O)*; αMeK = C[C@](N)(CCCCN)C(=O)O; Lauroyl = CCCCCCCCCCCC(=O)*; αMeS = C[C@](N)(CO)C(=O)O; AEEA = NCCOCCOCC(=O)O; Aib = CC(C)(N)C(=O)O

Key:
Type in all cases: cell-based
[1] = target: T1, human GLP-1 receptor (GLP-1R) (Homo sapiens, UniProt P43220); test: cAMP assay, human GLP-1R cells; conditions: bis-lipidated peptides; for EC50: mean of n1 and n2, read-out: Primary assay EC50 Mean pM GLP-1R
T1 construct: expressed in transfected cells
Procedure, shortened: (§1)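 Peptide-stimulated cAMP measured by two-step HTRF after a 30 min room-temperature incubation with receptor-expressing cells (hGLP-1R, hGIPR at 1×10^5 cells/ml; hGCGR at 2×10^5 cells/ml). Duplicate dilutions; EC50 from 4-parameter logistic fit of % Delta F.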

GLP-1R (INS1e assay) = target: T2, GLP-1R (INS1e assay) (Rattus norvegicus, UniProt P32301); test: INS1e assay, cAMP activity at GLP-1R; conditions: for EC50: mean of n1 and n2, read-out: INS1e assay EC50 Mean pM GLP-1R
T2 construct: endogenous in cells; host or cells: INS-1E cells
T2 sequence (P32301 22-463): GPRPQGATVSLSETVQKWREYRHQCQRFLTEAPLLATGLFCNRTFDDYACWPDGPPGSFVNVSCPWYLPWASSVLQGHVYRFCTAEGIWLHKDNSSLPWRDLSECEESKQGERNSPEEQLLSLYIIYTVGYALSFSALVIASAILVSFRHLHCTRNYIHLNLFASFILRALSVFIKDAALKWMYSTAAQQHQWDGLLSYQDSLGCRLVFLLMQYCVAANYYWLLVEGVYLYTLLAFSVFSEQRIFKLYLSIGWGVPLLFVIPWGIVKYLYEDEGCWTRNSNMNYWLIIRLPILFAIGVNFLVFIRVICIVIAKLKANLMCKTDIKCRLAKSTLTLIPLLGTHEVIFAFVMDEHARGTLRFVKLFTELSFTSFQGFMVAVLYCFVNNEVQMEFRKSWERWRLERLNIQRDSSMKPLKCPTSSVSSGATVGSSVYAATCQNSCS
Procedure: cAMP levels are measured using a commercially available cAMP dynamic 2 HTRF kit (Cisbio, Cat #62AM4PEJ), following the two step protocol as per manufacturer's recommendations. In brief; anti-cAMP cryptate (donor fluorophore) and cAMP-d2 (acceptor fluorophore) are made up separately by diluting each 1/20 in conjugate & lysis buffer provided in the kit. 5 μL anti-cAMP cryptate is added to wells of the assay plate, and 5 μL cAMP-d2 is added to wells except non-specific binding (NSB) wells, to which conjugate and lysis buffer are added. […] EC50 values of the synthetic peptides determined in cAMP assays are then determined.

[2] = target: T3, human glucagon receptor (GCGR) (Homo sapiens, UniProt P47871); test: cAMP assay, human GCGR cells; conditions: cAMP assay
T3 construct: expressed in transfected cells
Procedure, shortened: as §1

[3] = target: T4, human glucose-dependent insulinotropic peptide receptor (GIPR) (Homo sapiens, UniProt P48546); test: cAMP assay, human GIPR cells; conditions: cAMP assay
T4 construct: expressed in transfected cells
T4 sequence (P48546 22-466): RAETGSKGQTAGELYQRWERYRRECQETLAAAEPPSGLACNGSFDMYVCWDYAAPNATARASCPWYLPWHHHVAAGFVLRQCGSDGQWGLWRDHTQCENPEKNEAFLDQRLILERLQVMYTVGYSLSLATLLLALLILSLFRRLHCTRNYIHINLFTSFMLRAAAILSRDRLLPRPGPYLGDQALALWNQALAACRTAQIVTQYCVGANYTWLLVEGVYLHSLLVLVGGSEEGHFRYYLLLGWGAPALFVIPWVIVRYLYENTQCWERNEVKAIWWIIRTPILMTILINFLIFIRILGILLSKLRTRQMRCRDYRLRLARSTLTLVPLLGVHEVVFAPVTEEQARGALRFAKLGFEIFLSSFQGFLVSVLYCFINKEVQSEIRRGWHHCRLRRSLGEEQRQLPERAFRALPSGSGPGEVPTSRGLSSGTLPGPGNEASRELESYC
Procedure, shortened: as §1

[4] = replicate n1, read-out: Primary assay EC50 GLP-1R n1
[5] = replicate n2, read-out: Primary assay EC50 GLP-1R n2
[6] = bis-lipidated peptides, replicate n1, read-out: INS1e assay EC50 GLP-1R n1
[7] = bis-lipidated peptides, replicate n2, read-out: INS1e assay EC50 GLP-1R n2

T1 sequence (P43220 24-463): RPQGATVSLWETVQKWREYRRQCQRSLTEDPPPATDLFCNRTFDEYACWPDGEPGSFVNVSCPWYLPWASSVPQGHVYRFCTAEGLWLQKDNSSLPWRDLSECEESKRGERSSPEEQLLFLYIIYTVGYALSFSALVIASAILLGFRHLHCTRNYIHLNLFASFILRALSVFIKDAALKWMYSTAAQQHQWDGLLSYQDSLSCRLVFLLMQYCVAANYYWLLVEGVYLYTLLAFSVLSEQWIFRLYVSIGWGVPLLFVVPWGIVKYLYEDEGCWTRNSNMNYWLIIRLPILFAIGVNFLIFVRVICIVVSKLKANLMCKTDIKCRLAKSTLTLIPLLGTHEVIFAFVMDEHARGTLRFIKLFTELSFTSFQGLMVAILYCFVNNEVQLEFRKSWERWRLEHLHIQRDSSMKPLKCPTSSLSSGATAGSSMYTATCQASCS
T3 sequence (P47871 26-477): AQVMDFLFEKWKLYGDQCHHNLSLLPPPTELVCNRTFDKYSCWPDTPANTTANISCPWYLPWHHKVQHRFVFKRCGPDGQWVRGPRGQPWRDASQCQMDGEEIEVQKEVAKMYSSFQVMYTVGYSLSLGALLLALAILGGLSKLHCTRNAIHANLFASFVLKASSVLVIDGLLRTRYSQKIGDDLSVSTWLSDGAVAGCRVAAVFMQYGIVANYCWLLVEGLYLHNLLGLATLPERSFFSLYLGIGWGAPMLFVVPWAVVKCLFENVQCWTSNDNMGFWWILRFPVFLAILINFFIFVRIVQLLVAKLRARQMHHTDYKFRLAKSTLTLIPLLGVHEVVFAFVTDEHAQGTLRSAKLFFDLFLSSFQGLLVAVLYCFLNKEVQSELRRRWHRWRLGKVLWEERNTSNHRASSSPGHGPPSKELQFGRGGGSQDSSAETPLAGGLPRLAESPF

Row | SMILES | EC50 [1] [pM] | pEC50 [1, 4] | pEC50 [1, 5] | EC50 (GLP-1R (INS1e assay); bis-lipidated peptides) [pM] | pEC50 (GLP-1R (INS1e assay); [6]) | pEC50 (GLP-1R (INS1e assay); [7]) | EC50 (GLP-1R (INS1e assay); mono-lipidated peptides) [pM] | pEC50 (GLP-1R (INS1e assay); mono-lipidated peptides, replicate n1, read-out: INS1e assay EC50 GLP-1R n1) | pEC50 (GLP-1R (INS1e assay); mono-lipidated peptides, replicate n2, read-out: INS1e assay EC50 GLP-1R n2) | pEC50 ([2]; first determination (n1), read-out: Primary assay EC50 Gluc-R (n1)) | pEC50 ([2]; second determination (n2), read-out: Primary assay EC50 Gluc-R (n2)) | pEC50 ([3]; first determination (n1), read-out: Primary assay EC50 GIP-R (n1)) | pEC50 ([3]; second determination (n2), read-out: Primary assay EC50 GIP-R (n2))
1 | CCCCCCCCCCCC(=O)N[C@@H](CCC(=O)NCCOCCOCC(=O)NCCOCCOCC(=O)NCCCC[C@H](NC(=O)[C@H](C)NC(=O)[C@@H](NC(=O)[C@H](Cc1ccccc1)NC(=O)[C@H](CCC(=O)O)NC(=O)[C@](C)(CCCCN)NC(=O)[C@H](C)NC(=O)[C@H](C)NC(=O)[C@H](CCC(=O)O)NC(=O)CNC(=O)[C@H](CCC(=O)O)NC(=O)[C@H](CC(C)C)NC(=O)[C@H](Cc1ccc(O)cc1)NC(=O)[C@H](CO)NC(=O)[C@H](CO)NC(=O)[C@H](CCCCNC(=O)COCCOCCNC(=O)COCCOCCNC(=O)CC[C@H](NC(=O)CCCCCCCCCCC)C(=O)O)NC(=O)[C@H](CC(=O)O)NC(=O)[C@H](CO)NC(=O)[C@@H](NC(=O)[C@](C)(Cc1ccccc1)NC(=O)[C@H](CO)NC(=O)CNC(=O)[C@H](CCC(=O)O)NC(=O)C(C)(C)NC(=O)[C@@H](N)Cc1c[nH]cn1)[C@@H](C)O)[C@@H](C)CC)C(=O)N[C@H](C(=O)N[C@H](C(=O)N[C@@H](CCC(=O)O)C(=O)NCC(=O)NCC(N)=O)C(C)C)C(C)C)C(=O)O [compound 257] (H-H[Aib]EGS[αMeF]TSDK([AEEA-AEEA-γGlu-Lauroyl])SSYLEGEAA[αMeK]EFIAK([AEEA-AEEA-γGlu-Lauroyl])VVEGG-NH2) | 8.4 | 11.36 | 10.91 | 577 | 9.09 | 9.47 | – | – | – | – | – | – | –
2 | CC[C@H](C)[C@H](NC(=O)[C@](C)(Cc1ccccc1)NC(=O)[C@H](CCC(=O)O)NC(=O)[C@](C)(CCCCN)NC(=O)[C@H](CCCCNC(=O)COCCOCCNC(=O)COCCOCCNC(=O)CC[C@H](NC(=O)CCCCCCCCCCCCCCCCC(=O)O)C(=O)O)NC(=O)[C@H](C)NC(=O)[C@H](CCC(=O)O)NC(=O)CNC(=O)[C@H](CCC(=O)O)NC(=O)[C@H](CC(C)C)NC(=O)[C@](C)(Cc1ccccc1)NC(=O)[C@H](CO)NC(=O)[C@](C)(CO)NC(=O)[C@@H](NC(=O)[C@H](CC(=O)O)NC(=O)[C@H](CO)NC(=O)[C@@H](NC(=O)[C@](C)(Cc1ccccc1)NC(=O)[C@H](CO)NC(=O)CNC(=O)[C@H](CCC(=O)O)NC(=O)C(C)(C)NC(=O)[C@@H](N)Cc1c[nH]cn1)[C@@H](C)O)C(C)C)C(=O)N[C@@H](C)C(=O)N[C@@](C)(Cc1ccccc1)C(=O)N[C@H](C(=O)N[C@H](C(=O)N[C@@](C)(CCCCN)C(=O)NCC(=O)NCC(N)=O)C(C)C)C(C)C [compound 110] (H-H[Aib]EGS[αMeF]TSDV[αMeS]S[αMeF]LEGEAK([AEEA-AEEA-γGlu-C18 diacid])[αMeK]E[αMeF]IA[αMeF]VV[αMeK]GG-NH2; N-terminus assumed) | – | – | – | – | – | – | 27400 | 7.50 | 7.64 | ≤ 7.60 | ≤ 7.60 | ≤ 7.60 | ≤ 7.60
3 | CCCCCCCCCCCCCC(=O)N[C@@H](CCC(=O)NCCOCCOCC(=O)NCCOCCOCC(=O)NCCCC[C@H](NC(=O)[C@H](C)NC(=O)[C@@H](NC(=O)[C@](C)(Cc1ccccc1)NC(=O)[C@H](CCC(=O)O)NC(=O)[C@](C)(CCCCN)NC(=O)[C@H](C)NC(=O)[C@H](C)NC(=O)[C@H](CCC(=O)O)NC(=O)CNC(=O)[C@H](CCC(=O)O)NC(=O)[C@H](CC(C)C)NC(=O)[C@H](CCCCNC(=O)COCCOCCNC(=O)COCCOCCNC(=O)CC[C@H](NC(=O)CCCCCCCCCCCCC)C(=O)O)NC(=O)[C@H](CO)NC(=O)[C@](C)(CO)NC(=O)[C@@H](NC(=O)[C@H](CC(=O)O)NC(=O)[C@H](CO)NC(=O)[C@@H](NC(=O)[C@](C)(Cc1ccccc1)NC(=O)[C@H](CO)NC(=O)CNC(=O)[C@H](CCC(=O)O)NC(=O)C(C)(C)NC(=O)[C@@H](N)Cc1c[nH]cn1)[C@@H](C)O)C(C)C)[C@@H](C)CC)C(=O)N[C@H](C(=O)N[C@H](C(=O)N[C@@H](CCC(=O)O)C(=O)NCC(=O)NCC(N)=O)C(C)C)C(C)C)C(=O)O [compound 408] (H-H[Aib]EGS[αMeF]TSDV[αMeS]SK([AEEA-AEEA-γGlu-Myristoyl])LEGEAA[αMeK]E[αMeF]IAK([AEEA-AEEA-γGlu-Myristoyl])VVEGG-NH2) | 8.9 | 11.00 | 11.10 | 412 | 9.42 | 9.35 | – | – | – | – | – | – | –
4 | CCCCCCCCCCCCCCCCCC(=O)N[C@@H](CCC(=O)NCCOCCOCC(=O)NCCOCCOCC(=O)NCCCC[C@H](NC(=O)[C@H](C)NC(=O)[C@@H](NC(=O)[C@](C)(Cc1ccccc1)NC(=O)[C@H](CCC(=O)O)NC(=O)[C@](C)(CCCCN)NC(=O)[C@H](C)NC(=O)[C@H](C)NC(=O)[C@H](CCC(=O)O)NC(=O)CNC(=O)[C@H](CCC(=O)O)NC(=O)[C@H](CC(C)C)NC(=O)[C@H](CCCCNC(=O)COCCOCCNC(=O)COCCOCCNC(=O)CC[C@H](NC(=O)CCCCCCCCCCCCCCCCC)C(=O)O)NC(=O)[C@H](CO)NC(=O)[C@](C)(CO)NC(=O)[C@@H](NC(=O)[C@H](CC(=O)O)NC(=O)[C@H](CO)NC(=O)[C@@H](NC(=O)[C@](C)(Cc1ccccc1)NC(=O)[C@H](CO)NC(=O)CNC(=O)[C@H](CCC(=O)O)NC(=O)C(C)(C)NC(=O)[C@@H](N)Cc1c[nH]cn1)[C@@H](C)O)C(C)C)[C@@H](C)CC)C(=O)N[C@H](C(=O)N[C@H](C(=O)N[C@@H](CCC(=O)O)C(=O)NCC(=O)NCC(N)=O)C(C)C)C(C)C)C(=O)O [compound 410] (H-H[Aib]EGS[αMeF]TSDV[αMeS]SK([AEEA-AEEA-γGlu-Stearoyl])LEGEAA[αMeK]E[αMeF]IAK([AEEA-AEEA-γGlu-Stearoyl])VVEGG-NH2) | 187 | 9.61 | 9.90 | 780 | 9.16 | 9.06 | – | – | – | – | – | – | –
5 | CCCCCCCCCCCC(=O)N[C@@H](CCC(=O)NCCOCCOCC(=O)NCCOCCOCC(=O)NCCCC[C@H](NC(=O)[C@H](C)NC(=O)[C@@H](NC(=O)[C@](C)(Cc1ccccc1)NC(=O)[C@H](CCC(=O)O)NC(=O)[C@](C)(CCCCN)NC(=O)[C@H](C)NC(=O)[C@H](C)NC(=O)[C@H](CCC(=O)O)NC(=O)CNC(=O)[C@H](CCC(=O)O)NC(=O)[C@H](CC(C)C)NC(=O)[C@H](CCCCNC(=O)COCCOCCNC(=O)COCCOCCNC(=O)CC[C@H](NC(=O)CCCCCCCCCCC)C(=O)O)NC(=O)[C@H](CO)NC(=O)[C@](C)(CO)NC(=O)[C@@H](NC(=O)[C@H](CC(=O)O)NC(=O)[C@H](CO)NC(=O)[C@@H](NC(=O)[C@](C)(Cc1ccccc1)NC(=O)[C@H](CO)NC(=O)CNC(=O)[C@H](CCC(=O)O)NC(=O)C(C)(C)NC(=O)[C@@H](N)Cc1c[nH]cn1)[C@@H](C)O)C(C)C)[C@@H](C)CC)C(=O)N[C@H](C(=O)N[C@H](C(=O)N[C@@H](CCC(=O)O)C(=O)NCC(=O)NCC(N)=O)C(C)C)C(C)C)C(=O)O [compound 405] (H-H[Aib]EGS[αMeF]TSDV[αMeS]SK([AEEA-AEEA-γGlu-Lauroyl])LEGEAA[αMeK]E[αMeF]IAK([AEEA-AEEA-γGlu-Lauroyl])VVEGG-NH2) | – | – | 11.44 | – | 9.96 | – | – | – | – | – | – | – | –
